Two compounds from patent publication US9757350B2, “Small molecule inhibitors of replication protein A that also act synergistically with cisplatin” (Indiana University Research and Technology Corp., priority 2010, dated 2017) can be followed below.

Holding throughout (type): cell-based
Assay [1] deals with A549 cells. Put plainly: Combination index study with cisplatin (Chou-Talalay), crystal violet. Conditions: for Interaction with cisplatin, sequential treatment: A549, cisplatin 24 h, then SMI 24 h. The method, then:
Synergy with cisplatin—Analyses thus far indicate that inhibition of RPA is effective in eliciting effects consistent with inhibition of RPAs role in cell cycle progression and DNA replication. To assess if SMI treatment impacts RPAs role in DNA repair, how MCI13E or MCI13F treatment influences cellular sensitivity to cisplatin was assessed. […] Cisplatin-induced DNA damage is primarily repaired via NER and homologous recombination. […] Initially, a concurrent approach, similar to that described for another RPA SMI, TDRL-505 (1) was used. Briefly, A549 cells were treated for 48 hours with MCI13E, cisplatin, or combination treatment, with viability determined via crystal violet staining. […] Next, a sequential treatment protocol was used, first treating cells with cisplatin for 24 hours, then adding the SMI and incubating for an additional 24 hours.
Combination Index—Studies Combination index studies, performed with combination SMI and cisplatin treatment, were used to determine the level of synergy or antagonism between the two compounds. Referring now to FIG. 19A, a schematic illustrating Sequential treatment with cisplatin and MCI13E, and FIG. 19B, a schematic illustrating concurrent treatment with cisplatin and MCI13E. Cells received the same concentration of cisplatin or MCI13E but the time the cells were treated with cisplatin varied whereas treatment time with MCI remained the same between the two treatment methods.
Briefly, A549 cells were plated as described above in 24-well dishes (5×10^4 cells per well) and treated either concurrently or sequentially with single agent cisplatin or MCI treatment or with combination treatments. […] Following 48 hours of total treatment cells were analyzed for viability using the crystal violet assay described above and combination index values were calculated based on the Chou and Talalay method (15) as we have previously described (1,23).

Assay [2] relates to p53. As to the kind of experiment: Western blot of p53 serine-15 phosphorylation. Conditions: A549, western blot. How it is done:
Real-Time PCR—A549 cells were plated in 10 cm dishes at 1.5×10^6, allowed to adhere, and treated for 24-48 hours with cisplatin or SMIs (5 μM). Referring now to FIG. 16B, Western blot of cells treated sequentially. For sequential treatment, A549 cells were exposed to cisplatin for 24 hours followed by the addition of SMIs for another 24 hours as above. Referring now to FIG. 16A, A549 cells were treated sequentially or concurrently with cisplatin (5 μM) and MCI13E or MCI13F for 24 total hours. Lysates were probed for p53-ser15-phosphorylation or phosphorylated-ATM. GAPDH was probed as a loading control. Concurrently treated cells were incubated simultaneously with both cisplatin and MCIs for 24 hours. RNA was extracted using RNeasy minikit (Qiagen, Germantown, Md.) per manufacturer's protocol. cDNA was generated using Applied Biosystem's (ABI) High Capacity RNA-to-cDNA kit. Validated gene primer/probe sets, also from ABI, were used for Quantitative Real Time-PCR. ABI's ΔΔCT Relative Quantification methodology was used for the analyses (applied Biosystems). Data were normalized to the housekeeping gene GAPDH and calibrated to the mock treated samples. Results presented are the average of two separate cell treatments/RNA isolations with duplicate Taqman Assays per RNA sample set. […]

The test system of assay [3] is A549 cells. As to the kind of experiment: Crystal violet cell viability assay, A549. Conditions: 48 hours. The method, then: Referring now to FIG. 11A. Gel showing effect of MCI13E on DNA-RPA binding. […] Cytotoxicity was analyzed via crystal violet analysis as described in “methods” 48 hours following MCI13E treatment. Data represent the average and standard deviation of four replicate experiments with each replicate containing triplicate determinations and the circles represent data from H460 cells and squares A549 cells. Referring now to FIG. 11C. Graph of MCI13E induced death via apoptosis in NSCLC cell lines. Cell were treated with the indicated concentrations of MCI13E for 48 hours and analyzed for the induction of apoptosis via Annexin V/PI staining Referring now to FIG. 11D. Graph of cell survival as a function of [MCI1EC]. Percent survival was calculated for each cell line using untreated cells as a control. Data presented are the average and standard deviation from four replicate experiments. […]
Cell Viability Assays—A crystal violet cell viability assay was performed to determine cytotoxicity of SMI. […] Stained cells were resuspended in 500 μl DMSO containing 1% SDS and absorbance was measured at 590 nm in a SpectraMax M5 plate reader (Molecular Devices, Sunnyvale, Calif.) and analyzed using SoftMax Pro 5.2. Percent viability is taken as an absorbance percentage against control untreated cells. […]

Regarding `CC1(C)C2CCC1(C)C(OC(=O)CBr)C2` (racemic) [MCI13E, (+/−)-Isobornyl bromoacetate], in assay [1] (A549, 48 hours together), the “Interaction with cisplatin, concurrent treatment” value is listed as “antagonistic effect”. The “Interaction with cisplatin, sequential treatment” value in assay [1] is “synergizing with cisplatin at higher dosing concentrations”. For the same compound, the “p53 serine-15 phosphorylation, single agent” value in assay [2] is reported as “minimal single-agent effects on p53 phosphorylation”. Moreover, in assay [3], the IC50 was ~5 µM.
In the case of `CC1(C)C2CCC1(C)C(OC(=O)CI)C2` (racemic) [MCI13F, (+/−)-Isobornyl iodoacetate], the “Interaction with cisplatin, sequential treatment” value in assay [1] is recorded as “synergy with cisplatin at all tested concentrations”. The “p53 serine-15 phosphorylation, single agent” value in assay [2] was “minimal single-agent effects on p53 phosphorylation”. Also, the IC50 in assay [3] was ~5 µM.
